{
  "source": "patent US20240016153A1",
  "about": "“WHEAT SEED PRODUCTION” (PIONEER HI-BRED INTERNATIONAL, INC., priority 2022, published 2024)",
  "key": {"[1]": {"tested_on": "Hard Red Winter (HRW) wheat varieties or wheat inbred lines", "test": "field and greenhouse experiments: effect of GA3 on plant height, heading, flowering and yield in GA sensitive and insensitive wheat genotypes", "assay_type": "in vivo", "method": "A series of field and greenhouse experiments were conducted to understand the effect of GA3 on plant height, pollen dispersal and seed set in GA sensitive and insensitive wheat genotypes. Eight proprietary Hard Red Winter (HRW) wheat varieties or wheat inbred lines were used in this project at two locations. The plants were genotyped for the Rht1, Rht2, and Rht24 mutant alleles to determine which plants were GA3 sensitive or insensitive genotypes.\nCommercially available GA3 was applied using a broadcast application to the wheat plants at various vegetative growth stages described by the Feekes Scale. GA3 was applied at different rates of active ingredient (ai)/acre to elucidate the growth response. Experimental treatments were: Untreated, 1 oz ai/acre applied at Feekes stage 6, 1 oz ai/acre applied sequentially at Feekes stage 6 and Feekes stage 8 (2 oz ai/acre total), and 1 oz ai/acre applied sequentially at Feekes stage 6, Feekes stage 8, and Feekes stage 10 (3 oz ai/acre total)"}, "winter wheat genotypes": {"tested_on": "winter wheat genotypes", "test": "production studies: sodium chlorate desiccant sprayed to delay male flowering", "assay_type": "in vivo", "method": "A series of production studies were conducted to understand how to delay male flowering in wheat seed production. Several winter wheat genotypes were planted in a split plot design and sprayed with a commercially available sodium chlorate desiccant at the highest labeled rate at Feekes stages 7 and 9. In most crops, desiccants are typically used to artificially accelerate the drying down of plant tissues. Here, the strategy was to slow growth rates in the male wheat plants to delay heading and subsequent flowering. […] The desiccant caused a slight 0 to 2 inch (0 to 5 cm) reduction in plant height."}},
  "data": [
    {"smiles": "C=C1C[C@]23C[C@@]1(O)CC[C@H]2[C@@]12C=C[C@H](O)[C@@](C)(C(=O)O1)[C@H]2[C@@H]3C(=O)O", "note": "[GA3, gibberellin A3]", "values": [
      {"measurement": "change in heading and flowering", "setting": "[1]; GA insensitive genotypes", "result": "did not change"},
      {"measurement": "effect on wheat plant height", "setting": "[1]; GA sensitive genotypes vs same genotype not treated", "result": "positive effect"},
      {"measurement": "wheat yield vs untreated plants", "setting": "[1]; GA sensitive genotypes, same GA3 treatment", "result": "lower wheat yield"},
      {"measurement": "decrease of yield", "setting": "[1]; GA sensitive male genotypes", "result": 11, "unit": "%"},
      {"measurement": "differences in plant height with GA3 treatments", "setting": "[1]; plants with Rht1+Rht24 or Rht2+Rht24 mutant alleles (GA3 insensitive genotype combinations)", "result": "did not show differences in plant height"}
    ]},
    {"smiles": "[Na+].[O-][Cl+2]([O-])[O-]", "note": "[sodium chlorate]", "values": [
      {"measurement": "inbred male yield", "setting": "winter wheat genotypes; sprayed at Feekes stage 7 or 9 (both stages), FIG. 4", "result": "reduced"},
      {"measurement": "inbred male yield, comparison of stages", "setting": "winter wheat genotypes; sprayed at Feekes stage 9, FIG. 4", "result": "greatest reduction"}
    ]}
  ]
}
